Experimental findings from patent US20240316051A1, “A PHARMACEUTICAL COMBINATION AND USE THEREOF” (Ascentage Pharma (Suzhou) Co., Ltd., priority 2021, published 2024) are described below.

T1 sequence (O75530 whole entry): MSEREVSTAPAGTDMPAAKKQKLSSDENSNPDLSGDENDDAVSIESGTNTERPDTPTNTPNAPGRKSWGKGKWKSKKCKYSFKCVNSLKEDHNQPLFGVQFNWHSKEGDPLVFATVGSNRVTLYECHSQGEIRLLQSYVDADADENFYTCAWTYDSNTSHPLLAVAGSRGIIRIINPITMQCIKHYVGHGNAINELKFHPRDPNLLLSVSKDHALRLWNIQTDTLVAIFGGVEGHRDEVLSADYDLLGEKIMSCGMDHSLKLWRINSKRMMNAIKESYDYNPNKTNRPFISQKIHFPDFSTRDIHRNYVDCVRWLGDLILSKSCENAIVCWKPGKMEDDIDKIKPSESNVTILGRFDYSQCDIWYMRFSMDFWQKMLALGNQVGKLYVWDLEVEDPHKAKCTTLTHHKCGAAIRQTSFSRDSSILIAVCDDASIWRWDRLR

One assay has as its target T1, EED (1-441)-His protein (Homo sapiens, UniProt O75530).
T1 construct: 20 nM EED (1-441)-His protein
The assay is described as follows: EED-H3K27Me3 peptide competition binding assay by AlphaScreen. As to conditions: IC50 class, Table 4B, read-out: Alpha screen. The essentials:
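EED(1-441)-His was preincubated 15 min with compound, then biotin-H3K27Me3(19-33) peptide added for 30 min; both were added as 20 nM solutions in 25 mM HEPES pH 8, 0.02% Tween-20, 0.5% BSA. Ni-chelate acceptor and streptavidin donor beads (10 μg/ml each final) were added for 1 h in the dark at RT. Signal read at 615 nm (680 nm excitation), normalised to controls and fitted to dose-response for IC50.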
`CCc1ccc2c(n1)CN(CC(C)(F)F)C(=O)c1ncn3c(NCc4c(F)ccc5c4CCO5)ncc-2c13` [E 16, 4-(2,2-difluoropropyl)-7-ethyl-12-(((5-fluoro-2,3-dihydrobenzofuran-4-yl)methyl)amino)-4,5-dihydro-3H-2,4,6,11,12a-pentaazabenzo[4,5]cycloocta [1,2,3-cd]inden-3-one]: the IC50 is less than 10 nM.
Consider `Cc1ccc2c(n1)CN(CC(F)F)C(=O)c1ncn3c(NCc4c(F)ccc5c4CCO5)ncc-2c13` [E 6, 4-(2,2-difluoroethyl)-12-(((5-fluoro-2,3-dihydro-benzofuran-4-yl)methyl)amino)-7-methyl-4,5-dihydro-3H-2,4,6,11,12a-pentaazabenzo[4,5] cycloocta[1,2,3-cd]inden-3-one], for which the IC50 was less than 10 nM.
As for `O=C1NCCc2ccccc2-c2cnc(NCc3c(F)ccc4c3CCO4)n3cnc1c23` [E 28, 13-(((5-fluoro-2,3-dihydrobenzofuran-4-yl)methyl)amino)-5,6-dihydro-2,4, 12, 13a-tetraazabenzo[4,5] cyclonona[1,2,3-cd]inden-3(4H)-one], the IC50 lay in the range of 10 to 100 nM.
On to `Cc1cc2c(cn1)-c1cnc(NCc3c(F)ccc4c3CCO4)n3cnc(c13)C(=O)N(CC(F)F)C2` [E 9, 4-(2,2-difluoroethyl)-12-(((5-fluoro-2,3-dihydro-benzofuran-4-yl)methyl)amino)-7-methyl-4,5-dihydro-3H-2,4,8,11,12a-pentaazabenzo[4,5] cycloocta[1,2,3-cd]inden-3-one], for which the IC50 is less than 10 nM.
On to `CCc1ccc2c(n1)CN(CC(F)F)C(=O)c1ncn3c(NCc4c(F)ccc5c4CCO5)ncc-2c13` [E 13, 4-(2,2-difluoroethyl)-7-ethyl-12-(((5-fluoro-2,3-dihydrobenzofuran-4-yl)methyl)amino)-4,5-dihydro-3H-2,4,6,11,12a-pentaazabenzo[4,5]cycloocta [1,2,3-cd]inden-3-one], for which the IC50 is less than 10 nM.
As to `O=C1c2ncn3c(NCc4c(F)ccc5c4CCO5)ncc(c23)-c2cnc(C(F)(F)F)cc2CN1C1CCC1` [E 5, 4-cyclobutyl-12-(((5-fluoro-2,3-dihydrobenzofuran-4-yl)methyl)amino)-7-(trifluoromethyl)-4,5-dihydro-3H-2,4,8,11,12a-pentaazabenzo[4,5] cycloocta[1,2,3-cd]inden-3-one], the IC50 was less than 10 nM.
Take `O=C1c2ncn3c(NCc4c(F)ccc5c4CCO5)ncc(c23)-c2ccc(C3COCCO3)nc2CN1CC(F)(F)F` (stereo not shown) [E 48, 7-(1,4-dioxan-2-yl)-12-(((5-fluoro-2,3-dihydrobenzo-furan-4-yl)methyl)amino)-4-(2,2,2-trifluoroethyl)-4,5-dihydro-3H-2,4,6, 11,12a-pentaazabenzo[4,5] cycloocta[1,2,3-cd]inden-3-one]: the IC50 was less than 10 nM.
In the case of `Cc1ccc2c(n1)CN(C(C)C)C(=O)c1ncn3c(NCc4c(F)ccc5c4CCO5)ncc-2c13` [E 1, 12-(((5-fluoro-2,3-dihydrobenzofuran-4-yl)methyl)amino)-4-isopropyl-7-methyl-4,5-dihydro-3H-2,4,6,11,12a-pentaazabenzo[4,5]cycloocta[1,2,3-cd] inden-3-one], the IC50 is less than 10 nM.
Take `Cc1ccc2c(n1)CCNC(=O)c1ncn3c(NCc4c(F)ccc5c4CCO5)ncc-2c13` [E 29, 13-(((5-fluoro-2,3-dihydrobenzofuran-4-yl)methyl)amino)-8-methyl-5,6-dihydro-2,4,7,12,13a-pentaazabenzo[4,5]cyclonona[1,2,3-cd]inden-3(4H)-one]: the IC50 lay in the range of 10 to 100 nM.
Take `Fc1ccc2c(c1CNc1ncc3c4c(ncn14)-c1nccn1Cc1cc(C(F)(F)F)ncc1-3)CCO2` [E 33, N-((5-fluoro-2,3-dihydrobenzofuran-4-yl)methyl)-8-(trifluoromethyl)-6H-2,3,5a,9,12,13a-hexaaza-benzo[4,5]cyclopenta[7,8]cycloocta[1,2,3-cd]inden-13-amine]: the IC50 is 10 to 100 nM.

Still in this assay, the particulars now being: Table 4A, read-out: Alpha screen.
Take `O=C1c2ncn3c(NCc4c(F)ccc5c4CCO5)ncc(c23)-c2nc(C(F)(F)F)ccc2CN1CC1COCCO1` (stereo not shown) [Compound 40, 4-((1,4-dioxan-2-yl)methyl)-12-(((5-fluoro-2,3-dihydrobenzofuran-4-yl)methyl)amino)-8-(trifluoro-methyl)-4,5-dihydro-3H-2,4,9,11,12a-pentaazabenzo [4,5]cycloocta[1,2,3-cd]inden-3-one]: the IC50 is 10.5 nM.
Take `CN1CCC(CN2Cc3cc(C(F)(F)F)ncc3-c3cnc(NCc4c(F)ccc5c4CCO5)n4cnc(c34)C2=O)CC1` [Compound 38, 12-(((5-fluoro-2,3-dihydrobenzofuran-4-yl)methyl)amino)-4-((1-methylpiperidin-4-yl)methyl)-7-(trifluoromethyl)-4,5-dihydro-3H-2,4,8,11,12a-pentaazabenzo[4,5]cycloocta[1,2,3-cd]inden-3-one]: the IC50 came out at 1.25 nM.
The same measure, in the same setting: in the case of `O=S1(=O)Cc2ncccc2-c2cnc(NCc3c(F)ccc4c3CCO4)n3cnc1c23` [Compound 94, 11-(((5-fluoro-2,3-dihydrobenzofuran-4-yl)methyl)amino)-4H-3-thia-2,5,10,11a-tetraazadibenzo [cd,f]azulene 3,3-dioxide] it was 14 nM.
Still for that read-out and setting: in the case of `O=S1(=O)CCc2cc(F)ccc2-c2cnc(NCc3c(F)ccc4c3CCO4)n3cnc1c23` [Compound 96, 7-fluoro-12-(((5-fluoro-2,3-dihydrobenzofuran-4-yl)methyl)amino)-4,5-dihydro-3-thia-2,11,12a-triazabenzo[4,5]cycloocta[1,2,3-cd]indene 3,3-dioxide] it was 21.9 nM; in that of `O=C1c2ncn3c(NCc4c(F)ccc5c4CCO5)ncc(c23)-c2ccc(C(F)(F)F)nc2CN1CC1CCOC1` (stereo not shown) [Compound 52, 12-(((5-fluoro-2,3-dihydrobenzofuran-4-yl)methyl)amino)-4-((tetrahydrofuran-3-yl)methyl)-7-(trifluoro-methyl)-4,5-dihydro-3H-2,4,6,11,12a-pentaaza benzo[4,5]cycloocta[1,2,3-cd]inden-3-one], 0.7 nM.
For the compound `O=C1OCc2cc(C(F)(F)F)ccc2-c2cnc(NCc3c(F)ccc4c3CCO4)n3cnc1c23` [Compound 8, 12-(((5-fluoro-2,3-dihydrobenzofuran-4-yl)methyl)amino)-7-(trifluoromethyl)-3H,5H-4-oxa-2,11,12a-triazabenzo[4,5]cycloocta[1,2,3-cd]inden-3-one], the IC50 worked out at 1.97 nM.
Regarding `Cc1ccc2c(n1)CNC(=O)c1ncn3c(NCc4c(F)ccc5c4CCO5)ncc-2c13` [Compound 21, 12-(((5-fluoro-2,3-dihydrobenzofuran-4-yl)methyl)amino)-7-methyl-4,5-dihydro-3H-2,4,6,11,12a-pentaazabenzo[4,5]cycloocta[1,2,3-cd]inden-3-one], the IC50 stood at 0.55 nM.
As for `Cn1cc2c(n1)COC(=O)c1ncn3c(NCc4c(F)ccc5c4CCO5)ncc-2c13` [Compound 54, 11-(((5-fluoro-2,3-dihydrobenzofuran-4-yl)methyl)amino)-7-methyl-5,7-dihydro-3H-4-oxa-2,6,7,10, 11a-pentaazacyclopenta[4,5]cycloocta[1,2,3-cd] inden-3-one], the IC50 stood at 0.95 nM.
For the compound `O=C1c2ncn3c(NCc4c(F)ccc5c4CCO5)ncc(c23)-c2ccc(C(F)(F)F)nc2CN1C1CC1` [Compound 41, 4-cyclopropyl-12-(((5-fluoro-2,3-dihydrobenzofuran-4-yl)methyl)amino)-7-(trifluoromethyl)-4,5-dihydro-3H-2,4,6,11,12a-pentaazabenzo[4,5] cycloocta[1,2,3-cd]inden-3-one], the IC50 was 0.6 nM.
Regarding `CC(C)(F)CN1Cc2cc(C(F)(F)F)ccc2-c2cnc(NCc3c(F)ccc4c3CCO4)n3cnc(c23)C1=O` [Compound 62, 12-(((5-fluoro-2,3-dihydrobenzofuran-4-yl)methyl)amino)-4-(2-fluoro-2-methylpropyl)-7-(trifluoromethyl)-4,5-dihydro-3H-2,4, 11,12a-tetraazabenzo [4,5]cycloocta[1,2,3-cd]inden-3-one], the IC50 came out at 1.44 nM.
On to `O=C1c2ncn3c(NCc4c(F)ccc5c4CCO5)ncc(c23)-c2ccsc2CN1C1CC1` [Compound 88, 4-cyclopropyl-11-(((5-fluoro-2,3-dihydrobenzofuran-4-yl)methyl)amino)-4,5-dihydro-3H-6-thia-2,4, 10,11a-tetraazacyclopenta[4,5]cycloocta[1,2,3-cd] inden-3-one], for which the IC50 was 12.3 nM.
For the compound `O=C1OCc2cc(F)ccc2-c2cnc(NCc3c(F)ccc4c3CCO4)n3cnc1c23` [Compound 7, 7-fluoro-12-(((5-fluoro-2,3-dihydrobenzofuran-4-yl)methyl)amino)-3H,5H-4-oxa-2,11,12a-triazabenzo [4,5]cycloocta[1,2,3-cd]inden-3-one], the IC50 turned out to be 0.61 nM.
As for `COc1cccc(F)c1CNc1ncc2c3c(ncn13)C(=O)N(C1CC1)Cc1cc(C(F)(F)F)ncc1-2` [Compound 70, 4-cyclopropyl-12-((2-fluoro-6-methoxybenzyl)amino)-7-(trifluoromethyl)-4,5-dihydro-3H-2,4,8, 11,12a-pentaazabenzo[4,5]cycloocta[1,2,3-cd] inden-3-one], the IC50 was more than 100 nM.
Consider `O=C1c2ncn3c(NCc4c(F)ccc5c4CCO5)ncc(c23)-c2ccc(C(F)(F)F)nc2CN1CC1COCCO1` (stereo not shown) [Compound 35, 4-((1,4-dioxan-2-yl)methyl)-12-(((5-fluoro-2,3-dihydrobenzofuran-4-yl)methyl)amino)-7-(trifluoro-methyl)-4,5-dihydro-3H-2,4,6,11,12a-pentaazabenzo [4,5]cycloocta[1,2,3-cd]inden-3-one], for which the IC50 was 1.16 nM.
With `O=C1c2ncn3c(NCc4c(F)ccc5c4CCO5)ncc(c23)-c2cnc(C(F)(F)F)cc2CN1CC1CCOCC1` [Compound 45, 12-(((5-fluoro-2,3-dihydrobenzofuran-4-yl)methyl)amino)-4-((tetrahydro-2H-pyran-4-yl)methyl)-7-(trifluoromethyl)-4,5-dihydro-3H-2,4,8,11,12a-pentaazabenzo[4,5]cycloocta[1,2,3-cd]inden-3-one], the IC50 is 3.39 nM.
